Measurements: patent publication US20210100905A1, “APPLICATION OF COMPOUND OR TRADITIONAL CHINESE MEDICINE EXTRACT IN PREPARATION OF NUCLEIC ACID DELIVERY AGENT, AND RELATED PRODUCTS” (INSTITUTE OF BASIC MEDICAL SCIENCES CHINESE ACADEMY OF …, priority 2018, published 2021)
“Also recorded” adds a separate entry of the source.

Tests used:
[1] = test system: A549 cell (human lung adenocarcinoma cell); test: In vitro delivery of lipid nucleic acid mixture, RT-qPCR of intracellular small RNA; assay type: cell-based; settings: for abundance of sRNA of different sequences in the cells (Taqman probe): FIG. 11A-C, sRNA 200 nM, 3 hours, compared with the control; for delivery of HJT-sRNA-m7 double-stranded RNA into A549 cells (real-time PCR): single lipid prepared by boiling or reverse evaporation method, RNA 100 nM, FIGS. 76, 91, 96, 99, 104, 106, 107; for delivery of HJT-sRNA-m7 single-stranded RNA into A549 cells (real-time PCR): single lipid, FIGS. 78, 92, 103; for delivery effect relative to that of RNAiMAX (real-time PCR): double-stranded HJT-sRNA-m7
Experimental: 3.1 NCI-N87 cell (gastric cancer cell), MRC-5 cell (lung fibroblast), A549 cell (lung cancer cell) were cultured to logarithmic growth phase, and then plated to a six-well plate at cell density of 1×10^6/2 mL medium/well; MRC-5 cell was cultured in Eagle's MEM medium (MEM, Gibco); A549 cell was cultured in Ham's F-12 medium (HyClone); NCI-N87 cell was cultured in RPMI-1640 medium (HyClone); followed by incubation overnight at 37° C., and the follow-up experiments were performed after the cells were attached to the walls.
3.3 After co-incubation with the small RNA for 3 hours, the cells were washed 2-3 times with PBS. The cells were harvested with TRIzol lysis buffer, and the total RNA was extracted. The abundance of small RNA that entered cells was detected by RT-qPCR, and the localization of RNA was detected by fluorescence in situ hybridization; protocols of each detection method were as follows:
1) The sRNA was reverse transcribed to cDNA: Reverse Transcription Kit (High-Capacity cDNA Reverse Transcription Kits, Applied Biosystems, cat. No. 4368813) was used to reverse transcribe sRNA into cDNA by stem-loop method, and the reverse transcription system was as follows: RNA template (150 ng/μl) 10 μl, 10×RT buffer, 2.0 μl, 25× dNTP Mix (100 mM) 0.8 μl, U6 RT stem-loop primer 2.0 μl, HJT-sRNA-RT-m7 stem-loop primer 2.0 μl, MultiScribe™ reverse transcriptase 1.0 μl, RNase inhibitor 1.0 μl, nuclease-free H2O 1.2 μl, loaded into a PCR reactor after brief centrifugation, the reaction conditions were as follows: (1) 25° C., 10 min; (2) 37° C., 120 min; (3) 85° C., 5 min; (4) 4° C., termination of the reaction. 20 μl RNase-free ddH2O was added to make up the final volume to 40 μl after the reaction. The stem-loop primer used in the reverse transcription process was synthesized by Beijing Tsingke Biotechnology Co., Ltd.
2) Quantitative PCR amplification reaction: the qPCR reaction system has a total volume of 10 μl, containing: 5 μL 2×SYBR Green Master Mix, 0.5 μl forward primer ([…]), 0.5 μl reverse primer (10 μM), 1 μl cDNA by reverse transcription, 3 RNase-free dH2O. LightCycler 480 fluorescence quantitative PCR instrument was used, and the PCR reaction conditions were: 95° C. for 5 min for pre-denaturation, followed by PCR amplification cycle: (1) 95° C., 10 s; (2) 55° C., 10 s; (3) 72° C. , 20 s; a total of 40 cycles; 40° C. for 10 s in the end to cool down. Both the forward and reverse primers of the amplification reaction were designed and synthesized by Beijing Tsingke Biotechnology Co., Ltd.
3) The relative expression level was calculated by 2-ΔCt method.
100 μl lipid in diethyl ether solution was prepared, and grouped according to the lipid numbers shown in Table 1 (the lipid concentrations are shown in the table below). To the lipid solution was added 20 μl nucleic acid solution (HJT sRNA or siRNA) at the volume ratio of 5:1, and sonicated for after 3 min. The diethyl ether was removed by evaporation at 55° C., and then 100 μl DEPC water was added for hydration to give nucleic acid lipid mixture.
100 μL of the nucleic acid solution (HJT sRNA or siRNA) was added to 2-5 μL of the lipid in chloroform (the concentration was shown in Table 1), mixed, and heated at 80-100° C. for 15-30 min to give nucleic acid lipid mixture.
3.1.1 MRC-5 cell (pulmonary embryonic fibroblast), A549 cell (human lung adenocarcinoma cell), Caco-2 cell (human colon adenocarcinoma cell) (purchased from the Cell Resource Center of the Institute of Basic Medical Sciences, Chinese Academy of Medical Sciences) were cultured to logarithmic growth phase, then plated into 12-well plates at a cell density of 6×10^5/1 mL medium/well; MRC-5 and Caco-2 cells were cultured in Eagle's MEM medium (MEM, Gibco); A549 cells were cultured in Ham's F-12 medium (HyClone); followed by incubation overnight at 37° C., and the follow-up experiments were performed after the cells were attached to the walls. […]

A549 cells = test: Digital PCR (ddPCR) detection of the efficiency of nucleic acid delivery by lipid; assay type: cell-based, human; settings: boiling or reverse evaporation method; samples after 6 hours (No. 39: reverse evaporation, 6 and 12 hours)
From the text: 2.1 Experimental materials: A549 cells were purchased from the Cell Center of the Institute of Basic Medical Sciences, Chinese Academy of Medical Sciences, TRIzol lysis buffer was purchased from Sigma, High capacity cRNA Reverse Transcription Kit was purchased from ABI, USA, and the digital PCR related reagents were purchased from Bio-Rad USA.
(§1) 2.2 Experimental method: the total cellular RNA was collected and extracted by TRIzol lysis buffer according to the above methods, and reverse transcribed to cDNA using High capacity cRNA Reverse Transcription Kit, and the cDNA from different groups was subject to digital PCR reaction. Refering to the QX200 Droplet Reader and QuantaSoft Software manual for the protocols, the results were analyzed using QuantaSoft software.
as §1, with “method:” for “method: the”, “total” for “total cellular”, “method,” for “methods,”, “subjected” for “subject”, “Refer” for “Refering”, “protocols;” for “protocols,”
(§2) 2.2 Experimental method: Total RNA was collected and extracted by TRIzol lysis buffer according to the above method, and reverse transcribed to cDNA using TaqMan™ MicroRNA Reverse Transcription KitHigh, and the cDNA from different groups was subjected to digital PCR reaction. Refer to the QX200 Droplet Reader and QuantaSoft Software manual for the protocols; the results were analyzed using QuantaSoft software.
as §2, with “reversed” for “reverse transcribed”, “High capacity cRNA” for “TaqMan™ MicroRNA”, “Kit,” for “KitHigh,”

Row | SMILES | abundance of sRNA of different sequences in the cells (Taqman probe) ([1]; reverse evaporation method) | delivery of HJT-sRNA-m7 double-stranded RNA into A549 cells (real-time PCR) [1] | delivery of HJT-sRNA-m7 single-stranded RNA into A549 cells (real-time PCR) ([1]; boiling method) | delivery of HJT-sRNA-m7 dsRNA into A549 cells (ddPCR) (A549 cells) | delivery effect relative to that of RNAiMAX (real-time PCR) ([1]; reverse evaporation method) | delivery effect relative to that of RNAiMAX (real-time PCR) ([1]; boiling method)
1 | CCCCC/C=C\C/C=C\CCCCCCCC(=O)O[C@H](COC(=O)CCCCCCCCCCCCCCCCC)COP(=O)([O-])OCC[N+](C)(C)C [No. 11, trimethyl(2-{[(2R)-2-[(9Z, 12Z)-octadeca-9,12-dienoyloxy]-3-(octadecanoyloxy)propyl-phosphonato]oxy}ethyl) azanium] | could effectively facilitate nucleic acid molecules of different sequences entry into various cells | – | – | – | – | –
2 | CCCCC/C=C\C/C=C\CCCCCCCC(=O)O[C@H](COC(=O)CCCCCCCCCCCCCCC)COP(=O)([O-])OCC[N+](C)(C)C [No. 12, (2-{[(2R)-3-(hexadecanoyloxy)-2-[(9Z,12Z)-octadeca-9,12-dienoyloxy]propylphosphonato]oxy}ethyl) trimethylazanium] | could effectively facilitate nucleic acid molecules of different sequences entry into various cells | – | – | – | – | –
3 | CCCCCC/C=C\CCCCCCCC(=O)O[C@H](COC(=O)CCCCCCCCCCCCCCC)COP(=O)(O)OCCN [No. 38, (2-aminoethoxy) [(2R)-2-[(9Z)-hexadec-9-enoyloxy]-3-(hexadecanoyloxy)propoxy] phosphinic acid] | – | delivered double-stranded RNA into A549 and MRC-5 cells | the efficiency of delivery was much higher than that of RNAiMAX | could effectively deliver HJT-sRNA-m7 dsRNA into A549 cells | – | –
4 | CCCCCCCC/C=C\CCCCCCCCCCCC(=O)O[C@H](COC(=O)CCCCCCCCCCCCCCC)COP(=O)(O)OCCN [No. 40, (2-aminoethoxy) [(2R)-2-[(13Z)-docos-13-enoyloxy]-3-(hexadecanoyloxy)propoxy] phosphinic acid] | – | delivered double-stranded RNA into A549 cells | – | could effectively deliver HJT-sRNA-m7 dsRNA into A549 cells | ½ | –
5 | CCCCCCCCCCCCCCCCCCC[C@@H](O)[C@@H](N)CO [No. 41, Sphinganine (d22:0)] | – | delivered HJT-sRNA-m7 double-stranded RNA into A549 cells | delivered HJT-sRNA-m7 single-stranded RNA into A549 and MRC-5 cells | could effectively deliver HJT-sRNA-m7 dsRNA into A549 cells; also recorded: the boiling method had better effects than reverse evaporation method | significantly higher than that of RNAiMAX | about twice
6 | CCCCCCCC/C=C\CCCCCCCCCCCCCC(=O)O[C@H](COC(=O)CCCCCCCCCCCCCC)COP(=O)(O)OCCN [No. 64, 1-pentadecanoyl-2-nervonoyl-sn-glycero-3-phospho-ethanolamine] | – | delivered HJT-sRNA-m7 double-stranded RNA into A549 cells | – | – | – | about 3 times that of RNAiMAX
